# “Also recorded” adds a separate entry of the source.
# What was measured:
# p16^INK4a [1] = test: Imiquimod-induced skin senescence in p16^LUC mice, bioluminescence imaging; type: in vivo, SKH1 hairless p16^LUC mice
# Description: In order to study the effects of NAD^+ agonists on cellular senescence associated with the skin, which is associated with inflammation, senescence was induced in a luciferase knockin (p16^LUC) mouse (Burd et al. (2013) Cell 152: 340-351) using topical application of Imiquimod. Imiquimod (IMQ) is an immune modulator topically applied for skin conditions such as melanoma and genital warts. The side effect of IMQ is severe, painful inflammation and aging of the skin.
# P16^LUC mice contain the firefly luciferase cDNA inserted into the translational start site of the endogenous p16^INK4a gene. Conditions which induce expression of the p16^INK4a gene, and therefore induce cellular senescence, also induce expression of firefly luciferase in p16^LUC mice (Burd et al. […] Cell 152:340-351; Sorrentino et al. (2014) The Journal of Clinical Investigation, 124(1): 169-351).
# The following formulations were prepared: • 1. Cream carrier (containing no IMQ) (control or ctrl); • 2. IMQ cream (containing 5% IMQ) mixed with 10% water (IMQ); and • 3. IMQ cream (containing 5% IMQ) mixed with […] NMN (equating to 5% NMN) (IMQ+NMN).
# Each of 1, 2 and 3 were applied daily to the rump of SKH1 hairless p16^LUC mice for 4 days. The animals were subjected to bioluminescence imaging as a readout for senescence. Areas of fluorescence are indicated as darkened areas in FIG. 4.
# C2C12 myoblasts [2] = test: SA-β-Gal staining of C2C12 myoblasts incubated with various agents; type: cell-based
# Method: The ability of NAD^+ agonists to reduce senescence associated with various agents was tested by inclubating C2C12 myoblasts with various agents in the presence or absence of NMN or apigenin, and the cells subsequent stained as mentioned above for SA-β-Gal activity. The following agents were tested: [table]
# C2C12 myoblasts [3] = test: SA-β-Gal activity in C2C12 myoblasts by flow cytometry with C12FDG; type: cell-based
# Method: To determine the ability of NAD^+ agonists to prevent or reduce senescence associated with treatment with corticoids, C2C12 myoblasts were assayed for SA-β-Gal activity following contact with vehicle, NMN, apigenin, dexamethasone, dexamethasone and NMN, and dexamethasone and apigenin. SA-β-Gal activity was determined using the fluorogenic substrate, C12FDG, by flow cytometry (protocol of Debacq-Chainiaux et al. Nature Protocols 2009). FIG. 7A: […] FIGS. 7B and 7C: […] SA-β-Gal activity was decreased with NMN and/or apigenin. All data are presented as the mean value. * p<0.05, **** p<0.0001, using two-way ANOVA multiple comparisons test.
# 3T3-L1 adipocytes [4] = test: Intracellular lipid content (oil red o) of 3T3-L1 adipocytes treated with antiretroviral agents; details: for intracellular lipid content (oil red o, absorbance at 544 nm): 24 hr
# Method: The ability of NAD^+ agonists to reduce or prevent lipodystrophy associated with anti-retroviral compounds was assessed. The ability of NMN to prevent or reduce lipodystrophy was tested by determining the lipid content of 3T3-L1 adipocytes treated with a vehicle, or the antiretroviral agent stavudine, either alone or in combination with NMN.
# 3T3-L1 adipocytes were treated for 24 hr with the HIV antiretroviral compound stavudine (10 nM) in the presence or absence of NMN (1 mM). Intracellular lipid content was assessed using oil red o staining, which was quantified by reading absorbance at 544 nm. Error bars: SD.
# In order to further test the ability of NAD^+ agonists to reduce lipodystrophy associated with antiretroviral agents, 3T3-L1 adipocytes were treated for 24 hr with various antiretroviral compounds (30 μM) in the presence or absence of NMN (1 mM) or apigenin (25 μM). Intracellular lipid content was assessed using oil red o staining, which was quantified by reading absorbance at 544 nm.
# [5] = Blood glucose and free water (echoMRI) in dexamethasone treated rats; type: in vivo, Sprague-Dawley rats; details: one day after injection
# Method: To study the effects of NAD^+ agonists on senescence associated with treatment with corticoids, 250 g Sprague-Dawley rats were administered daily intraperitoneal injections of the following formulations for 3 days: • 1. Vehicle: saline • 2. Dexamethasone: 0.8 mg/kg of animal dexamethasone sodium phosphate • 3. Dexamethasone+NMN: 0.8 mg/kg body weight dexamethasone sodium phosphate and 1.5 g/kg body weight NMN.
# After 3 days, blood glucose was determined.
# Free water was assessed by echMRI one day after injection of the above formulations.
# 3T3-L1 adipocytes [6] = test: SA-β-gal chromogenic staining of dexamethasone treated 3T3-L1 adipocytes; type: cell-based; details: 5 days; dexamethasone 1, 0.5, 0.1 or 0.01 mg/ml; 1 mM NMN, 25 mM apigenin
# Method: To further investigate the effects of NAD^+ agonists on dexamethasone induced senescence, 3T3-L1 adipocytes were treated for 5 days with ethanol (control), or 1 mg/ml, 0.5 mg/ml, 0.1 mg/ml or 0.01 mg/ml of dexamethasone in combination with either DMSA, 1 mM NMN, 25 mM apigenin, or 1 mM NMN and 25 mM apigenin and subjected to senescence associated beta-galactosidase staining according to the chromogenic protocol of Debacq-Chainiaux F et al Nature Protocols 2009.
# [7] = Body weight after doxorubicin; type: in vivo, male C57BL6 mice; details: doxorubicin 10 mg/kg i.p. single dose at day 8
# Method: Vehicle control: 10% DMSO in PBS administered intraperitoneally; • 2. Apigenin: administered in diet at 500 mg/kg of diet, in addition to vehicle control administered i.p.; • 3. […] Apigenin administered in diet of 500 mg/kg of diet, and doxorubicin administered at 10 mg/kg body weight i.p. Apigenin was administered 8 days prior to administration of a single dose of doxorubicin. Body weight was assessed during the course of the experiment as a read-out of general health and malaise, the results of which are shown in FIG. 11.
# p16^INK4A [8] = test: Doxorubicin-induced senescence in p16^LUC mice, bioluminescence/CT imaging; type: in vivo; details: doxorubicin alone 1 mg/kg i.p.; imaging 24 hours after treatment
# Method: Vehicle control: 10% DMSO in PBS administered intraperitoneally; • 2. Apigenin: administered in diet at 500 mg/kg of food in addition to vehicle control administered i.p.; • 3. […] Apigenin administered in chow diet at 500 mg/kg of food, and doxorubicin administered at 1 mg/kg body weight i.p. Apigenin was administered 4 days prior to administration of doxorubicin. The animals were subjected to bioluminescence/CT imaging (Spectrum-CT instrument, PerkinElmer) as a readout for senescence 24 hours after treatment was completed. Areas of luminescence are shown as lightened areas in FIG. 5 and are indicated by an arrow.
# CD38 = molecular target: T1, CD38 (Homo sapiens, UniProt P28907); details: in vitro; Esande et al. (2013) Diabetes; cited from earlier work
# T1 sequence (P28907 1-300): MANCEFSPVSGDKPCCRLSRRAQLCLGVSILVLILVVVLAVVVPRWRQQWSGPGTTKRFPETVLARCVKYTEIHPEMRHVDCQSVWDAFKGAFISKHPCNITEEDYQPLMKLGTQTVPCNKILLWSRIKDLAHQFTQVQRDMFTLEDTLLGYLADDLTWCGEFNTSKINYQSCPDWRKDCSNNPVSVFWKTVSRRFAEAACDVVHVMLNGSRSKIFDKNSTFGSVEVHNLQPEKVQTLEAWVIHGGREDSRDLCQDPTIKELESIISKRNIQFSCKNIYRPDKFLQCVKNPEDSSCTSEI
structure (smiles),measurement,setting,value
"CC(C)Cn1cnc2c(N)nc3ccccc3c21 [IMQ, Imiquimod, reference compound]",p16^IN14a induction (bioluminescence),"p16^INK4a [1]; IMQ cream (5% IMQ) alone, applied daily to rump for 4 days",showed areas of p16^IN14a induction
"NC(=O)c1ccc[n+]([C@@H]2O[C@H](COP(=O)([O-])O)[C@@H](O)[C@H]2O)c1 [NMN, nicotinamide mononucleotide]","extent of senescence (proportion of cells stained blue, SA-β-Gal activity)",C2C12 myoblasts [2]; agents of the table of b212 with vs without apigenin or NMN,reduce the extent of senescence induced by the agents tested
same,extent to which the cells undergo senescence,"C2C12 myoblasts [2]; co-administration with AZT, 3TC, zalcitabine, efavirenze, lopinavir, ritonavir, nevirapine, tipranavir, tenofovir, invirase vs agent alone",reduces the extent to which the cells undergo senescence
same,extent to which the cells undergo senescence,C2C12 myoblasts [2]; co-administration with PPARγ agonist rosiglitazone vs rosiglitazone alone,reduces the extent to which the cells undergo senescence
same,extent to which the cells undergo senescence,C2C12 myoblasts [2]; co-administration with antiprotozoal agent quinacrine vs quinacrine alone,reduces the extent to which the cells undergo senescence
same,extent to which the cells undergo senescence,C2C12 myoblasts [2]; co-administration with each of the chemotherapeutic agents listed in b109 vs agent alone,reduces the extent to which the cells undergo senescence
same,extent to which the cells undergo senescence,C2C12 myoblasts [2]; co-administration with xanthine oxidase inhibitor allopurinol vs allopurinol alone,reduces the extent to which the cells undergo senescence
same,extent to which the cells undergo senescence,C2C12 myoblasts [2]; co-administration with zolendronate vs zolendronate alone,reduces the extent to which the cells undergo senescence
same,SA-β-Gal activity (FIG. 7A),"C2C12 myoblasts [3]; 48 hours, NMN 1 mM, both ethanol vehicle and dexamethasone (0.1 μg/ml) treated groups",significantly reduced SA-β-Gal activity
same,SA-β-Gal activity (FIG. 7B),"C2C12 myoblasts [3]; 72 hours, dexamethasone sodium phosphate 250 nM or PBS, NMN 1 mM or apigenin 25 uM",decreased
same,SA-β-Gal activity (FIG. 7C),"C2C12 myoblasts [3]; 96 hours, dexamethasone sodium phosphate 250 nM or PBS, NMN 1 mM or apigenin 25 uM",decreased
same,percentage of cells which exhibited SA-β-Gal activity following treatment with dexamethasone,C2C12 myoblasts [3]; summary of FIGS. 7A-7C,reduced the percentage of cells which exhibited SA-β-Gal activity
same,"lipodystrophy (intracellular lipid content, oil red o)","3T3-L1 adipocytes [4]; NMN 1 mM, cells treated 24 hr with 30 μM AZT, 3TC, stavudine, Efavirenz, Lopinavir, Ritonavir, Tipranavir",reduced lipodystrophy
same,"intracellular lipid content (oil red o, absorbance at 544 nm)","3T3-L1 adipocytes [4]; stavudine 10 nM and NMN 1 mM, vs NMN and vehicle",no reduction in lipid content
same,"erythema, scaling and redness of skin",p16^INK4a [1]; IMQ and NMN topical vs IMQ,"less erythema, scaling and redness"
same,p16^IN14a induction (bioluminescence),"p16^INK4a [1]; IMQ cream (5% IMQ) mixed with NMN (5% NMN), topical daily for 4 days, vs IMQ",little or no signs of p16^IN14a induction
same,free water (echoMRI),"[5]; dexamethasone sodium phosphate 0.8 mg/kg plus NMN 1.5 g/kg i.p., vs dexamethasone",reversed this effect
same,"SA-β-gal staining (blue cells), dexamethasone induced senescence",3T3-L1 adipocytes [6],reduced SA-β-gal staining; also recorded: reduce or prevent senescence induced by dexamethasone
"C[C@@H]1C[C@H]2[C@@H]3CCC4=CC(=O)C=C[C@]4(C)[C@@]3(F)[C@@H](O)C[C@]2(C)[C@@]1(O)C(=O)CO [dexamethasone, reference compound]",free water (echoMRI),[5]; dexamethasone sodium phosphate 0.8 mg/kg i.p.,significantly reduced the amount of free water
"COc1cccc2c1C(=O)c1c(O)c3c(c(O)c1C2=O)C[C@@](O)(C(=O)CO)C[C@@H]3O[C@H]1C[C@H](N)[C@H](O)[C@H](C)O1 [doxorubicin, reference compound]",body weight,[7],permanent loss of body weight for at least 40 days
same,p16^INK4A induction (bioluminescence),p16^INK4A [8],large areas of bioluminescence
"O=c1c(O)c(-c2ccc(O)c(O)c2)oc2cc(O)cc(O)c12 [quercetin, 2-(3,4-dihydroxyphenyl)-3,5,7-trihydroxy-4H-chromen-4-one, reference compound]",inhibition of CD38 activity,CD38,inhibitors of CD38 activity in vitro
"Cc1cn([C@H]2C=C[C@@H](CO)O2)c(=O)[nH]c1=O [stavudine, 2′,3′-didehydro-2′,3′-dideoxythymidine, reference compound]","intracellular lipid content (oil red o, absorbance at 544 nm)","3T3-L1 adipocytes [4]; stavudine 10 nM alone, vs vehicle",reduction in lipid content

# — patent US20240108645A1, “SENESCENCE AND SENESCENCE ASSOCIATED SECRETORY PHENOTYPE” (Metro Biotech NSW Pty Ltd, priority 2013, published 2024)
